Reference: patent US9302991B2, “Arylamide derivatives as TTX-S blockers” (RaQualia Pharma Inc., priority 2010, dated 2016)
pIC50: −log10 of the molar value.

Target: T1, human Nav1.7 channels (Homo sapiens, UniProt Q15858)
T1 construct: expressed in transfected cells; host or cells: CHO
Assay: FRET assay, human Nav1.7 (EFS on FDSS)
Format: cell-based
Settings: CHO cells expressing human Nav1.7, read-out: IC50 against Nav1.7
Method: The inhibitory activities of compounds against voltage gated sodium channels are determined by methodology well known in the art.
The ability of the aryl substituted carboxamide derivatives of the formula (I) to inhibit the NaV1.3, Nav1.7 and Nav1.5 channels is measured by Fluorescence Resonance Energy Transfer (FRET) assay and electrophysiology assay described below.
This screen is used to determine the effects of compounds on human Nav1.3, human Nav1.7, and human Nav1.5 channels, utilising electrical field stimulation (EFS) system in 96-well plate format on FDSS (Hamamatsu Photonics) platform. The change of membrane potential is monitored with FRET dye pair, oxonol (DiSBAC2(3)) and coumarin (CC2-DMPE).
CHO cells expressing human Nav1.7 channels are grown in T225 flasks, in a 5% CO2 humidified incubator to about 80% confluence. Media composition consists of HAM/F12 with Glutamax 1.10% FCS, 100 units/mL Penicillin and 100 microgram/mL Hygromycin.
Protocol: • Seed each cell lines (1×10^5 cells/well) into poly-D-lysine coated 96-well plates prior to experimentation. • Incubate at 37° C. in 5% CO2 for 24 hours. • Wash each well with assay buffer (140 mM NaCl, 4.5 mM KCl, 10 mM D-Glucose, 2 mM CaCl2, 1 mM MgCl2, 10 mM HEPES, pH 7.4 adjusted with NaOH) twice. • Add 1st loading solution containing 10 microM CC2-DMPE and 0.06% Pluronic F-127 in assay buffer. • Incubate the plate at room temperature in dark for 1 hour. • Remove 1st loading solution and added 2nd loading solution containing 15 microM DiSBAC2(3), 0.555 mM VABSC-1 and 0.004% Pluronic F-127 in assay buffer. • Place the plate under the dark at room temperature for 25 minutes. • Add compound solutions into the assay plate. • Set the assay plate in FDSS and placed an EFS device on the plate. • Measure EFS-induced fluorescent response by FDSS.
The data are analyzed and reported as normalized ratios of intensities measured at […]. The process of calculating these ratios is performed as follows:
This analysis is performed using a computerized specific program designed for FDSS generated data. Fluorescence ratio values are plotted using XLfit to determine an IC50 value for each compound.

T1 sequence (Q15858 whole entry): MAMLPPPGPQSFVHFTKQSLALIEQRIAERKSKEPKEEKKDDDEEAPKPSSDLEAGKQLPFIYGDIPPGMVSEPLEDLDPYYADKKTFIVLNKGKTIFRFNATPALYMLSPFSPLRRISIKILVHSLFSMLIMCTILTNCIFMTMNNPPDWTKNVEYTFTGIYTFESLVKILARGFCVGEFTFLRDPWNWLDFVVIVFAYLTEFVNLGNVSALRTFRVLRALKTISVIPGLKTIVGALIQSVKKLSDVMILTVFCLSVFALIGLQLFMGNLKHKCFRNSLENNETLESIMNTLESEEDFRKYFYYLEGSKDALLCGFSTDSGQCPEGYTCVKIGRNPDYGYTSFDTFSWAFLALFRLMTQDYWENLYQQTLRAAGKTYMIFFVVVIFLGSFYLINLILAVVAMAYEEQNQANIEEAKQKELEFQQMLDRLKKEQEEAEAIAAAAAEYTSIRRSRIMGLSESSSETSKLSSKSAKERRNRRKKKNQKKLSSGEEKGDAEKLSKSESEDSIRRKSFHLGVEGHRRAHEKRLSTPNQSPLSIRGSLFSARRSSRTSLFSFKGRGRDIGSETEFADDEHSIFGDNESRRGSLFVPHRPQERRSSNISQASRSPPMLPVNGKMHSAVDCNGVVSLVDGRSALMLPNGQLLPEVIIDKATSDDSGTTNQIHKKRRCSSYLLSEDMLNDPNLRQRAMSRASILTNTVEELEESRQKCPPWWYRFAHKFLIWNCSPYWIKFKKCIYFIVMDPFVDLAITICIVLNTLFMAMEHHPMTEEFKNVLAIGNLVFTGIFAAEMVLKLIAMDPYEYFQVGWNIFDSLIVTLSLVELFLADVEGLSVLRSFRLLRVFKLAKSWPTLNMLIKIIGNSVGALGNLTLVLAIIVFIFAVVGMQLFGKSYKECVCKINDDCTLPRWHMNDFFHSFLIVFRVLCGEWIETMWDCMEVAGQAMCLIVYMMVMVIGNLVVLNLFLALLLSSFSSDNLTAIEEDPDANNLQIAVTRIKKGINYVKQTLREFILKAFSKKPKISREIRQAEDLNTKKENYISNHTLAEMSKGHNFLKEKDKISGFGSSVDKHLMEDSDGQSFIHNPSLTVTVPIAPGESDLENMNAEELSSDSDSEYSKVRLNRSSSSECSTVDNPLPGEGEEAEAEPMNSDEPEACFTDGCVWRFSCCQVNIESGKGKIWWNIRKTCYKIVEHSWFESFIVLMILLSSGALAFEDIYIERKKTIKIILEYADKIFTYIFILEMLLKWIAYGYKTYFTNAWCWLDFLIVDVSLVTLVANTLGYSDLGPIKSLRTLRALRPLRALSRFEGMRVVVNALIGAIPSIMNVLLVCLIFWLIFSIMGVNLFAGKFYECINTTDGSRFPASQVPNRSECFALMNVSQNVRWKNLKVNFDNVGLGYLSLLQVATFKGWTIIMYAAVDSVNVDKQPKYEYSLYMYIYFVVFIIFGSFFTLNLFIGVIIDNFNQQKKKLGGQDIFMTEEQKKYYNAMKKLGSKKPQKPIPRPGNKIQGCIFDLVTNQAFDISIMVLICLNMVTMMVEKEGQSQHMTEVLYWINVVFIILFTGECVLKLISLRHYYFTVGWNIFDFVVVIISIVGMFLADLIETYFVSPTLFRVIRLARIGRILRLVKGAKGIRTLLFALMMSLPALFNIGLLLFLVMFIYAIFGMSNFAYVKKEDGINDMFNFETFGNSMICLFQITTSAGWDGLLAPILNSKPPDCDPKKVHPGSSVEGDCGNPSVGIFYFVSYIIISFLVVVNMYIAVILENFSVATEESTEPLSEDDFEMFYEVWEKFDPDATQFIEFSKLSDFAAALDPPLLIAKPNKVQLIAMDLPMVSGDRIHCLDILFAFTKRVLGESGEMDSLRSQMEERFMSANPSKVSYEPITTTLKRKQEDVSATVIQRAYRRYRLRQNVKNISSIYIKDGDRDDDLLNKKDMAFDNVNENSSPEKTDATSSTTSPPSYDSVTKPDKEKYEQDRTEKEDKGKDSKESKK

pIC50, > 6.00:
CC(=O)Nc1cc(C(=O)NC(C)c2cc(C(F)(F)F)ccc2F)cc(C)n1 (single isomer, unassigned) [Example 981, 2-acetamido-N-(1-(2-fluoro-5-(trifluoromethyl)phenyl)ethyl)-6-methyl-isonicotinamide]
CC(C)C(=O)Nc1cc(C(=O)N[C@H](C)c2cccc(C(F)(F)F)c2)ccn1 (single isomer, unassigned) [Example 530]
Cc1cc(C(=O)NCc2ccc(OCC(F)F)cc2C)cc(NC(=O)C(C)C)n1 [Example 1008, N-(4-(2,2-difluoroethoxy)-2-methylbenzyl)-2-isobutyramido-6-methylisonicotinamide]
CC(C)C(=O)Nc1cc(C(=O)NC(C)c2ccc(OCC(F)(F)F)cc2)ccn1 (single isomer, unassigned) [Example 562, 2-isobutyramido-N-(1-(4-(2,2,2-trifluoroethoxy)phenyl)ethyl)isonicotinamide]
CC(=O)Nc1nccc(C(=O)NC(C)c2cnc(OCC(F)(F)F)c(C)c2)n1 (single isomer, unassigned) [Example 234, 2-acetamido-N-(1-(5-methyl-6-(2,2,2-trifluoroethoxy)pyridin-3-yl)ethyl)pyrimidine-4-carboxamide]
CC(=O)Nc1cc(C(=O)NCc2cccc(OC(F)(F)F)c2)ccn1 [Example 24, 2-acetamido-N-(3-(trifluoromethoxy)benzyl)isonicotinamide]
CC(=O)Nc1cc(C(=O)NC(C)c2cccc(OCC(F)(F)F)c2)ccn1 (single isomer, unassigned) [Example 84, 2-acetamido-N-(1-(3-(2,2,2-trifluoroethoxy)phenyl)ethyl)isonicotinamide]
Cc1cc(C(=O)NC(C)c2cnc(OCC(F)(F)F)c(F)c2)cc(NC(=O)C(C)C)n1 (single isomer, unassigned) [Example 486, N-(1-(5-fluoro-6-(2,2,2-trifluoroethoxy)pyridin-3-yl)ethyl)-2-isobutyramido-6-methylisonicotinamide]
COc1nc(OCC(F)(F)F)ccc1CNC(=O)c1cc(C)nc(NC(=O)C2CC2)n1 [Example 181, 2-(cyclopropanecarboxamido)-N-((2-methoxy-6-(2,2,2-trifluoroethoxy)pyridin-3-yl)methyl)-6-methylpyrimidine-4-carboxamide]
COc1nc(OCC(F)F)ccc1C(C)NC(=O)c1cc(C)nc(NC(=O)C(C)C)c1 (single isomer, unassigned) [Example 1166, N-(1-(6-(2,2-difluoroethoxy)-2-methoxypyridin-3-yl)ethyl)-2-isobutyramido-6-methylisonicotinamide]
CCC(=O)Nc1cc(C(=O)NC(C)c2ccc(OC(F)(F)F)cc2)cc(C)n1 (single isomer, unassigned) [Example 135, 2-methyl-6-propionamido-N-(1-(4-(trifluoromethoxy)phenyl)ethyl)isonicotinamide]
Cc1cc(C(=O)NC(C)c2ccc(OCC(F)(F)F)cc2Cl)cc(NC(=O)C(C)C)n1 (single isomer, unassigned) [Example 801, N-(1-(2-chloro-4-(2,2,2-trifluoroethoxy)phenyl)ethyl)-2-isobutyramido-6-methylisonicotinamide]
CCOc1nc(OCC(F)(F)F)ccc1CNC(=O)c1ccnc(NC(=O)C(C)C)c1 [Example 335, N-((2-ethoxy-6-(2,2,2-trifluoroethoxy)pyridin-3-yl)methyl)-2-isobutyramidoisonicotinamide]
CCC(=O)Nc1cc(C(=O)NCc2ccc(OCC(F)(F)F)nc2C)cc(C)n1 [Example 168, 2-methyl-N-((2-methyl-6-(2,2,2-trifluoroethoxy)pyridin-3-yl)methyl)-6-propionamidoisonicotinamide]
